# Test results as given in patent US9375002B2, “5-aminopyrimidine derivatives and use thereof for combating undesired plant growth” (BAYER INTELLECTUAL PROPERTY GMBH, priority 2012, dated 2016).
# What was measured:
# [1] = logp (HCOOH), physicochemical characterization; conditions: for chromatographic logP: HCOOH (formic acid)
# Echinochloa crus-galli = experiment: Pre-emergence herbicidal effect; assay type: in vivo; conditions: 1280 g/ha, visual assessment after 3 weeks
# From the text: (§1) 1. Pre-Emergence Herbicidal Effect and Crop Plant Compatibility Seeds of monocotyledonous and dicotyledonous weed plants and crop plants are placed in wood-fiber pots in sandy loam and covered with soil. The inventive compounds, formulated in the form of wettable powders (WP) or as emulsion concentrates (EC), are then applied to the surface of the covering soil as an aqueous suspension or emulsion at a water application rate of 600 to 800 I/ha (converted) with addition of 0.2% wetting agent. After the treatment, the pots are placed in a greenhouse and kept under good growth conditions for the test plants. The damage to the test plants is assessed visually after a test period of 3 weeks by comparison with untreated controls (herbicidal activity in percent (%): 100% action=the plants have died, 0% action=like control plants). AMARE: Amaranthus retroflexus ECHCG: Echinochloa crus-galli
# Matricaria inodora = experiment: Pre-emergence herbicidal effect; assay type: in vivo; conditions: 1280 g/ha, visual assessment after 3 weeks
# From the text: as §1, with “LOLMU: Lolium multiflorum MATIN: Matricaria inodora” for “AMARE: Amaranthus retroflexus ECHCG: Echinochloa crus-galli”
# Polygonum convolvulus [2] = experiment: Pre-emergence herbicidal effect; assay type: in vivo; conditions: 1280 g/ha, visual assessment after 3 weeks
# From the text: as §1, with “POLCO: Polygonum convolvulus SETVI: Setaria viridis” for “AMARE: Amaranthus retroflexus ECHCG: Echinochloa crus-galli”
# Setaria viridis = experiment: Pre-emergence herbicidal effect; assay type: in vivo; conditions: 1280 g/ha, visual assessment after 3 weeks
# From the text: as §1, with “POLCO: Polygonum convolvulus SETVI: Setaria viridis” for “AMARE: Amaranthus retroflexus ECHCG: Echinochloa crus-galli”
# Stellaria media = experiment: Pre-emergence herbicidal effect; assay type: in vivo; conditions: 1280 g/ha, visual assessment after 3 weeks
# From the text: as §1, with “STEME: Stellaria media VERPE: Veronica persica” for “AMARE: Amaranthus retroflexus ECHCG: Echinochloa crus-galli”
# Veronica persica [3] = experiment: Pre-emergence herbicidal effect; assay type: in vivo; conditions: 1280 g/ha, visual assessment after 3 weeks
# From the text: as §1, with “STEME: Stellaria media VERPE: Veronica persica” for “AMARE: Amaranthus retroflexus ECHCG: Echinochloa crus-galli”
# Amaranthus retroflexus [4] = experiment: Post-emergence herbicidal effect; assay type: in vivo; conditions: 1280 g/ha, visual rating after about 3 weeks
# Procedure: (§2) AMARE: Amaranthus retroflexus ECHCG: Echinochloa crus-galli 2. Post-Emergence Herbicidal Effect and Crop Plant Compatibility Seeds of monocotyledonous and dicotyledonous weed and crop plants are placed in sandy loam in wood-fiber pots, covered with soil and cultivated in a greenhouse under good growth conditions. 2 to 3 weeks after sowing, the test plants are treated at the one-leaf stage. The compounds according to the invention, formulated in the form of wettable powders (WP) or as emulsion concentrates (EC), are then sprayed as aqueous suspension or emulsion at a water application rate of 600 to 800 I/ha (converted) with the addition of 0.2% of wetting agent onto the green parts of the plants. After the test plants have been kept in the greenhouse under optimum growth conditions for about 3 weeks, the activity of the preparations is rated visually in comparison to untreated controls (herbicidal activity in percent (%): 100% activity=the plants have died, 0% activity=like control plants).
# Polygonum convolvulus [5] = experiment: Post-emergence herbicidal effect; assay type: in vivo; conditions: 1280 g/ha, visual rating after about 3 weeks
# Procedure: as §2, with “POLCO: Polygonum convolvulus SETVI: Setaria viridis” for “AMARE: Amaranthus retroflexus ECHCG: Echinochloa crus-galli”
# Veronica persica [6] = experiment: Post-emergence herbicidal effect; assay type: in vivo; conditions: 1280 g/ha, visual rating after about 3 weeks
# Procedure: as §2, with “STEME: Stellaria media VERPE: Veronica persica” for “AMARE: Amaranthus retroflexus ECHCG: Echinochloa crus-galli”
# Alopecurus myosuroides = experiment: Pre-emergence herbicidal effect; assay type: in vivo; conditions: 1280 g/ha, visual assessment after 3 weeks
# From the text: as §1, with “ABUTH: Abutilon theophrasti ALOMY: Alopecurus myosuroides” for “AMARE: Amaranthus retroflexus ECHCG: Echinochloa crus-galli”
# Amaranthus retroflexus [7] = experiment: Pre-emergence herbicidal effect; assay type: in vivo; conditions: 1280 g/ha, visual assessment after 3 weeks
# From the text: as §1
# Lolium multiflorum = experiment: Pre-emergence herbicidal effect; assay type: in vivo; conditions: 1280 g/ha, visual assessment after 3 weeks
# From the text: as §1, with “LOLMU: Lolium multiflorum MATIN: Matricaria inodora” for “AMARE: Amaranthus retroflexus ECHCG: Echinochloa crus-galli”
# Viola tricolor = experiment: Pre-emergence herbicidal effect; assay type: in vivo; conditions: 1280 g/ha, visual assessment after 3 weeks
# From the text: as §1, with “VIOTR: Viola tricolor” for “AMARE: Amaranthus retroflexus ECHCG: Echinochloa crus-galli”
# Abutilon theophrasti = experiment: Post-emergence herbicidal effect; assay type: in vivo; conditions: 1280 g/ha, visual rating after about 3 weeks
# Procedure: as §2, with “ABUTH: Abutilon theophrasti ALOMY: Alopecurus myosuroides” for “AMARE: Amaranthus retroflexus ECHCG: Echinochloa crus-galli”
smiles,measurement,setting,value
Cc1ccc2c(c1)[C@H](Nc1cnc(S(C)(=O)=O)nc1C#N)[C@@H](C)C2 [compound 108],logp (HCOOH),[1],"solid; logp (HCOOH): 3.29; 1H-NMR (CDCl3, 400 MHZ, δ in ppm): 1.25 (d, 3H, CH3);"
Cc1cc(C)c2c(c1)C(Nc1cnc(S(C)(=O)=O)nc1)CCO2 (racemic) [compound 62],logp (HCOOH),[1],"wax-like; logp (HCOOH): 4.06; 1H-NMR (CDCl3, 400 MHZ, δ in ppm): 2.10-2.35 (m,"
"CCc1ccc2c(c1)C(Nc1cnc(C#N)nc1)CCO2 (centres unmarked) [Ex. 64, 5-[(6-Ethyl-3,4-dihydro-2H-chromen-4-yl)amino]pyrimidine-2-carbonitrile]",chromatographic logP,[1],2.8
CCc1ccc2c(c1)C(Nc1cnc(C(F)(F)F)nc1)CCO2 (racemic) [compound 70],logp (HCOOH),[1],"wax-like; logp (HCOOH): 3.41; 1H-NMR (CDCl3, 400 MHZ, δ in ppm): 1.15 (t, 3H,"
"FC(F)(F)c1ncc(N[C@@H]2CCc3ccccc32)cn1 [Ex. 115, N-[(1R)-2,3-Dihydro-1H-inden-1-yl]-2-(trifluoromethyl)pyrimidine-5-amine]",chromatographic logP,[1],3.05
same,melting point,,123.7 °C
Cc1ccc2c(c1)[C@H](Nc1cnc(C#N)nc1)[C@@H](C)C2 [compound 76],logp (HCOOH),[1],"wax-like; logp (HCOOH): 3.17; 1H-NMR (CDCl3, 400 MHZ, δ in ppm): 1.25 (d, 3H,"
CS(=O)(=O)c1ncc(N[C@@H]2CCc3ccccc32)cn1 [compound 131],herbicidal activity ECHCG,Echinochloa crus-galli,100%
same,herbicidal activity MATIN,Matricaria inodora,100%
same,herbicidal activity POLCO,Polygonum convolvulus [2],100%
same,herbicidal activity SETVI,Setaria viridis,90%
same,herbicidal activity STEME,Stellaria media,100%
same,herbicidal activity VERPE,Veronica persica [3],100%
same,herbicidal activity AMARE,Amaranthus retroflexus [4],80%
same,herbicidal activity POLCO,Polygonum convolvulus [5],80%
same,herbicidal activity VERPE,Veronica persica [6],80%
CS(=O)(=O)c1ncc(N[C@@H]2CCCc3ccccc32)c(C(N)=O)n1 [compound 87],logp (HCOOH),[1],"wax-like; logp (HCOOH): 1.86; 1H-NMR (CDCl3, 400 MHZ, δ in ppm): 1.85 (m, 2H, 2H"
"Cc1ccc2c(c1)[C@H](Nc1cnc(S(C)(=O)=O)nc1C(N)=O)[C@@H](C)C2 [compound 93, 5-{[(1R,2S)-2,6-Dimethyl-2,3-dihydro-1H-inden-1-yl]amino}-2-(methylsulfonyl)pyrimidine-4-carboxamide]",herbicidal activity ALOMY,Alopecurus myosuroides,90%
same,herbicidal activity AMARE,Amaranthus retroflexus [7],100%
same,herbicidal activity ECHCG,Echinochloa crus-galli,100%
same,herbicidal activity LOLMU,Lolium multiflorum,90%
same,herbicidal activity MATIN,Matricaria inodora,100%
same,herbicidal activity POLCO,Polygonum convolvulus [2],100%
same,herbicidal activity SETVI,Setaria viridis,90%
same,herbicidal activity STEME,Stellaria media,100%
same,herbicidal activity VERPE,Veronica persica [3],100%
same,herbicidal activity VIOTR,Viola tricolor,100%
same,herbicidal activity AMARE,Amaranthus retroflexus [4],80%
same,herbicidal activity ABUTH,Abutilon theophrasti,80%
same,chromatographic logP,[1],2.21
Cc1ccc2c(c1)[C@H](Nc1cnc(S(C)(=O)=O)nc1C(=O)NC1CC1)[C@@H](C)C2 [compound 139],herbicidal activity ALOMY,Alopecurus myosuroides,90%
same,herbicidal activity AMARE,Amaranthus retroflexus [7],100%
same,herbicidal activity LOLMU,Lolium multiflorum,100%
same,herbicidal activity MATIN,Matricaria inodora,100%
same,herbicidal activity STEME,Stellaria media,100%
same,herbicidal activity VERPE,Veronica persica [3],100%
same,herbicidal activity VIOTR,Viola tricolor,100%
CCc1ccc2c(c1)C(Nc1cnc(S(C)(=O)=O)nc1C#N)CCO2 (racemic) [compound 66],herbicidal activity AMARE,Amaranthus retroflexus [7],100%
same,herbicidal activity MATIN,Matricaria inodora,90%
same,herbicidal activity POLCO,Polygonum convolvulus [2],90%
same,herbicidal activity STEME,Stellaria media,100%
same,herbicidal activity VERPE,Veronica persica [3],100%
same,herbicidal activity VIOTR,Viola tricolor,100%
same,logp (HCOOH),[1],"wax-like; logp (HCOOH): 2.54; 1H-NMR (CDCl3, 400 MHZ, δ in ppm): 1.15 (t, 3H,"
